{"source": "patent US20070212712A1", "about": "“Methods for identifying modulators of hedgehog autoprocessing” (priority 2005, published 2007)", "test_system": "Shh-N signaling", "assay": "Autoprocessing-independent Shh-N signaling assay (Gli-luciferase, control)", "assay_type": "cell-based, mouse", "details": "1 μM KAAD-cyclopamine", "protocol": "This cell-based assay (FIGS. 1A and 1B) made use of Hh-responsive 3T3 mouse cells stably transfected with a Shh plasmid expressing full length Shh protein that undergoes autoprocessing to produce functionally active Shh protein. Cells incubated with pre-spliced N-Shh protein were used as a control. Shh signaling was assayed in control and treated cells using with dual luciferase reporter assay of luciferase activity expressed from an integrated copy of a Gli-luciferase reporter gene linked to of 8 tandem repeats of Gli transcription factor-binding sites, normalized to activity of a Renilla gene under the control of minimum TK promoter, to monitor toxicity and cell survival. Inhibition was confirmed by Western blot analysis of Hh autoprocessing (FIG. 2). Additional cell-based assays for testing the activities of candidate Hh autoprocessing inhibitors in blocking full-length Hh signaling include the measurement of Hh target gene expression (Patched, Gli , IGF2, N-myc; for example, via a luciferase-based assay) and chondrocyte differentiation of 10T½ cells. Persons skilled in the art will note that the above assays are also suitable for use in a cell-free assay system."}
{"smiles": "CC1=C2C[C@H]3[C@@H](CC=C4CC(=O)CC[C@@]43C)[C@@H]2CC[C@]12O[C@@H]1C[C@H](C)CN(CCNC(=O)CCCCCNC(=O)CCc3ccccc3)[C@H]1[C@H]2C", "note": "[KAAD-cyclopamine]", "values": [{"measurement": "Effect on Gli-luciferase activity in response to Shh-N", "value": "inhibited Gli-luciferase activity"}]}
